Measurements as given in US20240415828A1, “TLR7 AGONIST AND COMBINATIONS FOR CANCER TREATMENT” (BIONTECH SE, priority 2021, published 2024).

Key:
[1] = test system: CT26 colon carcinoma cells; assay: CT26 tumor model, BNT411 alone and with anti-PD-L1 antibody (Example 5); assay type: in vivo; details: no adverse clinical effects, higher toxicities, or body weight loss
Description: FIG. 6. Anti-tumoral efficacy of BNT411 alone and in combination with an anti-PD-L1 antibody in a tumor mouse model. Mice (n=10 per group) subcutaneously inoculated with 5×10^5 CT26 colon carcinoma cells were used as tumor mouse model. The anti-PD-L1 antibody anti-PD-L1-mIgG1e3 was administered intraperitoneally (i.p.) at a dose level of 200 μg per animal. BNT411 was administered i.v. at a dose level of 3 mg/kg. All treatments were delivered once every five days for a total of six doses. Body weight changes and tumor growth were assessed on study day 21 when there were at least nine animals alive in each group. (A) Dosing schedule. (B) Graph showing the tumor volumes vs. study day. Mean tumor volume±SEM (mm^3) is depicted for each treatment. Last observations were carried forward until day 35 when only the animal who cleared the tumor was left. […]
BALB/c mice were inoculated s.c. with 2.5×10^5−5×10^5 CT26-WT into the flank, respectively. […] Tumor volume was measured unblinded with a caliper and calculated using the formula (a×b^2)/2 (a being the largest and b being the smallest diameter of the tumor). […]
Four groups of 10 animals were inoculated with 1×10^6 CT26 cells per animal into the dorsal right flank (day 0). […] Body weight changes and tumor growth were assessed on study day 21 when there were at least nine animals alive in each group. […]

[2] = test system: Human PBMCs; assay: In vitro human PBMC stimulation assay (IFNα, multiplexed CBA); assay type: cell-based; details: 24 h after stimulation, n=5
Description: FIG. 1. In vitro human PBMC stimulation assay. […] Data shown as mean±standard deviation (SD), n=5.
After performing a serial dilution of the test compounds (such as BNT411), 5 μL of each sample is transferred/pipetted to single wells of a 96-well-plate. As negative control, plasma which has been prepared from whole blood of each donor is used. Subsequently, 245 μL of RPMI-medium is added to each well, leading to a 1:50 dilution of each sample, named spiking solutions. The heparinized whole blood is pipetted to separate 96-well-plate. After seeding whole blood, the prepared spiking solutions are added: 190 μL of whole blood is seeded in each well and 10 μL of spiking solutions is added to get a final volume of 200 μL per well and additional 1:20 dilution of all samples. Finally, the plates are incubated at 37° C. and 5% CO2. After 24 h incubation the plates are centrifuged at 500×g for 5 min. The plasma of all samples is harvested, transferred to a new 96-well-plate and frozen at −15° C. to −25° C. until performing the CBA, but at least 3 h.
The CBA is performed with the frozen/thawed plasma samples according to the manufacturer's instructions for ProCarta multiplex kits. For evaluation of cytokine concentrations, assay duplicates of all samples are measured by using the luminex system. […]

[3] = test system: CT26 colon carcinoma cells; assay: CT26 tumor model, BNT411 alone and with oxaliplatin (Example 4); assay type: in vivo, mouse
Description: FIG. 5. Anti-tumoral efficacy of BNT411 alone and in combination with oxaliplatin in a tumor mouse model. Mice (n=12 or 13 per group) subcutaneously inoculated with 2.5×10^5 CT26 colon carcinoma cells were used as tumor mouse model. Oxaliplatin was administered intraperitoneally (i.p.) (5 mg/kg, four times with 4 to 5 days between injections). BNT411 was administered i.v. at a dose level of 3 mg/kg eight times with 2 to 5 days interval between injections and at least 2 days after oxaliplatin therapy. Anti-tumor efficacy was evaluated by group mean tumor volumes in test versus control groups (vehicle only) on days 33 and 42 (at least 50% of test and control animals alive). IFNα levels in plasma were analyzed 1 h after first BNT411 administration and gp70+ T-cell populations in blood were analyzed on days 34 and 41. (A) Dosing schedule. (B) Graph showing the tumor volumes vs. days after inoculation. Group mean tumor volumes (±SEM (standard error of the mean)) for all live animals are shown. Treatment groups included nine to ten mice. Additionally, tumor volumes of animals that were euthanized due to tumor load were carried forward for as long as they were larger than the group median tumor volume (last observation carried forward (LOCF) values). Curves were discontinued for groups with less than 50% animals alive. (C) Graph showing IFNα serum level 60 min after first injection for the 4 groups (control (vehicle); BNT411 alone; oxaliplatin alone; BNT411 and oxaliplatin). IFNα levels in control and test groups are shown by vertical bars (±SEM), Statistical significance between groups is indicated by horizontal lines. P-value summary: ****=p≤0.0001; ***=p≤0.001; **=p≤0.01, […].
Serum levels of IFNα were measured by sandwich ELISA (Pbl Assay Systems) according to manufacturer's instructions.
BALB/c mice were inoculated s.c. with 2.5×10^5−5×10^5 CT26-WT into the flank, respectively. Once tumors reached palpable sizes, mice were randomly divided into treatment and control groups. Tumor volume was measured unblinded with a caliper and calculated using the formula (a×b^2)/2 (a being the largest and b being the smallest diameter of the tumor). Tumor growth was documented as mean tumor size with standard error disregarding single distant outliers. Treatment was initiated after 7-10 d with tumors having reached an average volume of about 10 mm^3. […]
Oxaliplatin was administered intraperitoneally (i.p.) (5 mg/kg, four times with 4 to 5 days between injections). […] Anti-tumor efficacy was evaluated by group mean tumor volumes in test versus control groups (vehicle only) on study days 33 and 42, (at least 50% of test and control animals alive). IFNα levels in plasma were analyzed 1 h after first BNT411 administration and gp70+ T-cell populations in blood on study days 34 and 41.

With `COCCc1nc2c(N)nc3ccccc3c2n1CCCCN(C(C)=O)C1CCOCC1` [BNT411] the tolerability throughout treatment [1] was “well tolerated”, the “amount of IFNα induced compared to imiquimod (R837), resiquimod (R848) and 852A” value [2] was “significantly higher amount” and the “concentrations inducing IFNα, fold lower compared to imiquimod (R837), resiquimod (R848) and 852A” value [2] was 10 to 30 fold. The “anti-tumor efficacy, T/C value” ([3]; BNT411 3 mg/kg i.v. eight times, oxaliplatin 5 mg/kg i.p. four times, group mean tumor volumes test vs control) was 65.8%, the “effect on tumor growth (conclusion)” value ([3]; mouse, in vivo) was “anti-tumor activity” and the “IFNα levels, BNT411 monotherapy group vs combination of BNT411 and oxaliplatin” value ([3]; two-way ANOVA) was “statistically significantly higher”.
